Measured values: PMC5064019, “Nicotinamide is an endogenous agonist for a C. elegans TRPV OSM-9 and OCR-4 channel” (Nature Communications, 2016)

Key:
[1] = molecular target: T1, OSM-9–OCR-4 TRPV channel (Caenorhabditis elegans, UniProt G5EBV8+Q9N3Y9); assay: two-electrode voltage clamp, Xenopus oocytes, Hill fit; format: cell-based; conditions: read-out: K1/2
T1 construct: untagged cDNAs (osm-9 in pGEMHE, ocr-4 in pOX); cRNAs co-injected in Xenopus oocytes; heterotetramer, likely 2:2
T1 sequence (G5EBV8 1-937): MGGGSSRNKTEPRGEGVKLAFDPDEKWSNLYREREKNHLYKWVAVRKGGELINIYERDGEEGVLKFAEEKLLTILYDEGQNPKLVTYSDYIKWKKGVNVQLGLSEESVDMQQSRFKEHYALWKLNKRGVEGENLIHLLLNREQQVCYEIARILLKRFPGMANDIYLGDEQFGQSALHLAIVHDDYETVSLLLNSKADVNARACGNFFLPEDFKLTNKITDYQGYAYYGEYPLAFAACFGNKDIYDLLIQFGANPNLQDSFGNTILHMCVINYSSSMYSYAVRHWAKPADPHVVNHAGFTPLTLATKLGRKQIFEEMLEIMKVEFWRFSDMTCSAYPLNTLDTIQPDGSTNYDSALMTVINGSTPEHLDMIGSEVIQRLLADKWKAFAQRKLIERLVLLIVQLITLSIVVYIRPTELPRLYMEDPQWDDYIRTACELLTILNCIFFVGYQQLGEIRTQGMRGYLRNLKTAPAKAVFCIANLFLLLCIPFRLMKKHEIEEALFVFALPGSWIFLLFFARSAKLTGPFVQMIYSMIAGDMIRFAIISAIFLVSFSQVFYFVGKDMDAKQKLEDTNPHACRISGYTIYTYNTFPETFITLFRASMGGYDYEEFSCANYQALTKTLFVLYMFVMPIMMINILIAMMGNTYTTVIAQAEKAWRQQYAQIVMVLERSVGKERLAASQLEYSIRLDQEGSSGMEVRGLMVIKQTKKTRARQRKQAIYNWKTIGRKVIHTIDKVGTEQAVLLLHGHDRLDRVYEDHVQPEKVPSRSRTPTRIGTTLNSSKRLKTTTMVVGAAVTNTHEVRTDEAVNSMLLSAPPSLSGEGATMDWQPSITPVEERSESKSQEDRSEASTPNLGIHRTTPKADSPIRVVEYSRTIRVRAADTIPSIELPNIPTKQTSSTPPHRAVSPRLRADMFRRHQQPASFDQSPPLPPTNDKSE
T1 sequence (Q9N3Y9 1-756): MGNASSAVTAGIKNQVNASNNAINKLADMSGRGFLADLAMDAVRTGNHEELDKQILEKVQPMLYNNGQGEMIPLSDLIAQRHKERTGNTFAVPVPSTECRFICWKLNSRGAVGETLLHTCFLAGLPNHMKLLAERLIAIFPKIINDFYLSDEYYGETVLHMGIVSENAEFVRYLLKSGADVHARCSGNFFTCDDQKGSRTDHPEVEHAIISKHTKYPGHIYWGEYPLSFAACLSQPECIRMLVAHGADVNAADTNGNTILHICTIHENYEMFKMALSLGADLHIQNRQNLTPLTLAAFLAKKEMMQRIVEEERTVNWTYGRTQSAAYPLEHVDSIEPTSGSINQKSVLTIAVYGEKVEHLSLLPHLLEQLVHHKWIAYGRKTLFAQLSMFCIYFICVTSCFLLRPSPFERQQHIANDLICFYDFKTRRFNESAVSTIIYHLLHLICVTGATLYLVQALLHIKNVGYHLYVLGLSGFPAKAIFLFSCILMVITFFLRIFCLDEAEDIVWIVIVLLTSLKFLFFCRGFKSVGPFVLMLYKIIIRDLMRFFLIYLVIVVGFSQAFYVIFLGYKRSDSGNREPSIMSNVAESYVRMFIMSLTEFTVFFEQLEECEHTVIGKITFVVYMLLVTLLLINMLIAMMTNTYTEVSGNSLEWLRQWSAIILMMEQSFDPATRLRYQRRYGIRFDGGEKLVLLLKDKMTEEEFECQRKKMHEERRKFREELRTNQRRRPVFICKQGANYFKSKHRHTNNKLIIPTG

[2] = molecular target: T2, Nan–Iav TRPV channel (Drosophila melanogaster, UniProt Q9VUD5+Q9W3W0); assay: as above; format: cell-based; conditions: read-out: K1/2
T2 construct: iav cDNA in pCR4-TOPO, synthesized nan cDNA in pcDNA3.1; cRNAs co-injected in Xenopus oocytes; heteromeric channel
T2 sequence (Q9VUD5 1-833): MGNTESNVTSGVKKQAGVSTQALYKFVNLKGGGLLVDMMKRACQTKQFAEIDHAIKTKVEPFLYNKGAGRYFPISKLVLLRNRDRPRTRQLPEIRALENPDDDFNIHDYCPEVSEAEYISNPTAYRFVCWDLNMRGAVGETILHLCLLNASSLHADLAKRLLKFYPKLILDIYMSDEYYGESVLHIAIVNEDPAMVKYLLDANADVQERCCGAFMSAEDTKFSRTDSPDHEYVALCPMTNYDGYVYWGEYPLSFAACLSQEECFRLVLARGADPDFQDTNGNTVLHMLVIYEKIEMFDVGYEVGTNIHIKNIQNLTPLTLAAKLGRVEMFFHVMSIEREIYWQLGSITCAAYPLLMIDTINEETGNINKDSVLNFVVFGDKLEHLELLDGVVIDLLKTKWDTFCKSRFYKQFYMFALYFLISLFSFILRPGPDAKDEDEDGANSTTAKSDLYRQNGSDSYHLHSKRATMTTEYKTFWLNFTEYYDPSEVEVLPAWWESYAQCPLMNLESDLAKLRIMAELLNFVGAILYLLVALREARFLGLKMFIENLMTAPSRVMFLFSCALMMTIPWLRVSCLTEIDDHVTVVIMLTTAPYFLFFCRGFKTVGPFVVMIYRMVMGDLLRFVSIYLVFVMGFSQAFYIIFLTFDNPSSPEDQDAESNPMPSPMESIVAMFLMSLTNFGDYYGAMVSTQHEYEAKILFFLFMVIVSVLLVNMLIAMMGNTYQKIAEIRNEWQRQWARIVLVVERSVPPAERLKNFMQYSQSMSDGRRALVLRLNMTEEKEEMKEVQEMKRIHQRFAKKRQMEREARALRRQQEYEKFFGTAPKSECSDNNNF
T2 sequence (Q9W3W0 1-1123): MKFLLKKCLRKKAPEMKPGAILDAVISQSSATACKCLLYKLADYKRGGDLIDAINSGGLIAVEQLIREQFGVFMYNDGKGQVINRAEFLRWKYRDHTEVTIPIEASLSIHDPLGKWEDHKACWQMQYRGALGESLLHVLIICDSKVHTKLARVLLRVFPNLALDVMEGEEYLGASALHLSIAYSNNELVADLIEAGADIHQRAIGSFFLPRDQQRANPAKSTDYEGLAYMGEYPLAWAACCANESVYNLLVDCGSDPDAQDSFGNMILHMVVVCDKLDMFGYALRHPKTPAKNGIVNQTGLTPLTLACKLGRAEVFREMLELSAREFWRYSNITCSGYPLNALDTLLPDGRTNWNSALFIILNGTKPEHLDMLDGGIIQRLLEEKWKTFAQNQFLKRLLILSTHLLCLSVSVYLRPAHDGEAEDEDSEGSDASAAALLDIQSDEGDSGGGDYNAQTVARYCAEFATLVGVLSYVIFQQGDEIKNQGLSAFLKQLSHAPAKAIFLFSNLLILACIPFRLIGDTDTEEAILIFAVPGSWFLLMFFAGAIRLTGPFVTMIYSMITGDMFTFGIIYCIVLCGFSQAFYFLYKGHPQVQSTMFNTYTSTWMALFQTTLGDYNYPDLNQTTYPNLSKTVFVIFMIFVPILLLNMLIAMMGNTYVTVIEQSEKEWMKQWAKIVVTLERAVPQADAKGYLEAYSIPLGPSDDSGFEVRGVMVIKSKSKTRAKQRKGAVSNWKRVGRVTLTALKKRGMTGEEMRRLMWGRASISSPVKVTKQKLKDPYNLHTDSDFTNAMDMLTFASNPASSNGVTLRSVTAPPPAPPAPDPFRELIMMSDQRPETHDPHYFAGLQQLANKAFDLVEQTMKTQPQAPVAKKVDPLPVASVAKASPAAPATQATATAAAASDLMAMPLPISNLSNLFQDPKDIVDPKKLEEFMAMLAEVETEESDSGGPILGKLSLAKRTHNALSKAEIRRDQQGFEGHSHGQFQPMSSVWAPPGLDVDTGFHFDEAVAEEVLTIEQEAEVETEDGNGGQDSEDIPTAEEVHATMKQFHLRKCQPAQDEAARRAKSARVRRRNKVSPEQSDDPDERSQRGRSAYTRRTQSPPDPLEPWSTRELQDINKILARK

NC(=O)c1cccnc1 [nicotinamide]
EC50 [1]: 63.3 ± 13.2 µM
EC50 [2]: 14.4 ± 1 µM
